Usually IC50 stands for the concentration at which inhibition is half-maximal. Usually GI50 stands for the concentration at which growth is held to half of that of the control. A lower GI50 goes with more potent growth inhibition.

Assay [1] has as its target USP1 (Recombinant Human His6-USP1/His6-UAF1 Complex Protein) (Homo sapiens (Human), UniProt O94782). Nature of the assay: In vitro activity assay for USP1 (Ub-CHOP2-Reporter deubiquitination assay). It counts as biochemical. The conditions noted are these: 0.5 h incubation at room temperature, read-out: In vitro inhibitory activity of USP1 IC50. On the procedure: The assay kit (Ub-CHOP2-Reporter Deubiquitination Assay Kit) was purchased from Lifesensors, with Cat. No. of PR1101. The assay kit was subpackaged and stored at −80° C.
Each compound to be tested was dissolved with DMSO to 10 mM. The compound and pure DMSO (with a total volume of 50 nL) were loaded to each well of the 384-well plate by using an ECHO instrument to obtain gradient-diluted sample concentrations at different ratios. The enzyme was diluted with a freshly prepared reaction solution (20 mM Tris-HCl (pH 8.0), 2 mM CaCl2, 2 mM β-mercaptoethanol, 0.05% CHAPS, and ddH2O). To each well, 5 μL of diluted enzyme reaction solution was added, then the plate was centrifuged and oscillated to mix the enzyme and the compound, and the mixture was centrifuged again and placed on ice. The kit reporter system and the substrate were diluted with the reaction solution, then 5 μL of diluted liquid was added to each well, and mixed by centrifugation. The mixture was incubated at room temperature for 0.5 h. […] The inhibitory activity (IC50 values) of the compound on enzyme activity was calculated by using a four-parameter Logistic Model. […] A, B, C, and D are four parameters.

The test system of assay [2] is MDA-MB-436 cells.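 Further: MDA-MB-436 proliferation over 7 days with compound, viability read as ATP luminescence (CellTiter-Glo), inhibition relative to DMSO-only wells, day 0 signal as background, GI50 from four-parameter fit.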

USP1 (Recombinant Human His6-USP1/His6-UAF1 Complex Protein), sequence (O94782 whole entry): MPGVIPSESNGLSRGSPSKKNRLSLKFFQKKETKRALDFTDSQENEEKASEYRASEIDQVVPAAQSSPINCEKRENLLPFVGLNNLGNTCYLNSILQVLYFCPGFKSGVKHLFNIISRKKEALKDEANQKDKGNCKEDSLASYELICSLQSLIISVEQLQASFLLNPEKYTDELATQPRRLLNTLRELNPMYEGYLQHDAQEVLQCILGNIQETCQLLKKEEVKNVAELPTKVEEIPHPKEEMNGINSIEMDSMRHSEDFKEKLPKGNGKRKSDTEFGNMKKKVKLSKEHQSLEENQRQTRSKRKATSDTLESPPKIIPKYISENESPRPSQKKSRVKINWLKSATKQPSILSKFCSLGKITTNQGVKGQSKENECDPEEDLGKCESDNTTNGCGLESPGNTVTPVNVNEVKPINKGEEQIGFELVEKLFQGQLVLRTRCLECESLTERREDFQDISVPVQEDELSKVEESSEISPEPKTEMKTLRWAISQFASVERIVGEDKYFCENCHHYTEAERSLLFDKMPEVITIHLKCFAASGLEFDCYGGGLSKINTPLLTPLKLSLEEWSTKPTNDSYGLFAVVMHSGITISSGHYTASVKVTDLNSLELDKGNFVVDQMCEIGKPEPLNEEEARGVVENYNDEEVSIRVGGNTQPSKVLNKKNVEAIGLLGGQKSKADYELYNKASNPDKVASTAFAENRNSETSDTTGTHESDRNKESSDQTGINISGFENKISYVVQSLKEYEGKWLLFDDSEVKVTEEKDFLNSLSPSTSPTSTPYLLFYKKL
USP1 (Recombinant Human His6-USP1/His6-UAF1 Complex Protein), sequence (Q8TAF3 whole entry partner): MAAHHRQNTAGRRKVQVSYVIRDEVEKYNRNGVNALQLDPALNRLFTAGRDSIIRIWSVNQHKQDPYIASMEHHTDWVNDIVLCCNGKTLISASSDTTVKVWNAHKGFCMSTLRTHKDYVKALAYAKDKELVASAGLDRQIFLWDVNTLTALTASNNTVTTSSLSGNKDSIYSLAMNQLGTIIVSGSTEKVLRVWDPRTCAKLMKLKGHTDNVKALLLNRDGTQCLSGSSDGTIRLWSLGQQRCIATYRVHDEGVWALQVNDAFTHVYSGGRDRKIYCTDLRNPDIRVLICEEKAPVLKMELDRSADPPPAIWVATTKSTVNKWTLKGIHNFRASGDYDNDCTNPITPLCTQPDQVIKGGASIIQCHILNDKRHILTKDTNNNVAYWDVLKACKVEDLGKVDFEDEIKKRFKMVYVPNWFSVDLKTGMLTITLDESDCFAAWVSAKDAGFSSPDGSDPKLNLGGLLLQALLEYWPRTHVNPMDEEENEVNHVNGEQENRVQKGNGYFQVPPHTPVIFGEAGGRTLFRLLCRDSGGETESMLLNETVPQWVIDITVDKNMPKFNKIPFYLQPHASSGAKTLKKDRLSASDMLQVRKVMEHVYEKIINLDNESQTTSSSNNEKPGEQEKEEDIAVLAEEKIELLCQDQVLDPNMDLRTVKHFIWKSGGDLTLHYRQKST

With `COc1ncnc(C2CC2)c1-c1cc2c(cn1)OCCN2Cc1ccc(-c2nc(C(F)(F)F)cn2C)cc1` [Compound 3, 7-(4-cyclopropyl-6-methoxypyrimidin-5-yl)-1-(4-(1-methyl-4-(trifluoromethyl)-1H-imidazol-2-yl)benzyl)-2,3-dihydro-1H-pyrido[3,4-b][1,4]oxazine], in assay [1], the IC50 stood at 21.3 nM. In assay [2], this compound displayed a GI50 of 47.3 nM.

Take `COc1ncnc(C2CC2)c1-c1ncc2c(n1)N(Cc1ccc(-c3nc(C(F)(F)F)cn3C)cc1)CC(=O)N2` [Compound 5, 2-(4-cyclopropyl-6-methoxypyrimidin-5-yl)-8-(4-(1-methyl-4-(trifluoromethyl)-1H-imidazol-2-yl)benzyl)-7,8-dihydropteridin-6(5H)-one]: the IC50 in assay [1] was 43.7 nM. The GI50 in assay [2] came to 152 nM.

In the case of `COc1ncnc(C2CC2)c1-c1ncc2c(n1)N(Cc1c(F)cc(-c3nc(C(F)(F)F)cn3C)cc1F)CCO2` [Compound 10, 2-(4-cyclopropyl-6-methoxypyrimidin-5-yl)-8-(2,6-difluoro-4-(1-methyl-4-(trifluoromethyl)-1H-imidazol-2-yl)benzyl)-7,8-dihydro-6H-pyrimido[5,4-b][1,4]oxazine], in assay [1], the IC50 stood at 106 nM. Also, it took 507 nM to inhibit growth in assay [2] by half (GI50).

Regarding `COc1ncnc(C2CC2)c1-c1ncc2c(n1)N(Cc1ccc(-c3nc(C(F)(F)F)cn3C)cc1)CC(C)O2` (centres unmarked) [Compound 15, 2-(4-cyclopropyl-6-methoxypyrimidin-5-yl)-6-methyl-8-(4-(1-methyl-4-(trifluoromethyl)-1H-imidazol-2-yl)benzyl)-7,8-dihydro-6H-pyrimido[5,4-b][1,4]oxazine], in assay [1], the IC50 was determined as 34 nM. In assay [2], this compound registered a GI50 of 20.1 nM.

For the compound `COc1ncnc(C2CC2)c1-c1ncc2c(n1)N(Cc1ccc(-c3nc(C(F)(F)F)cn3C)cc1)C(=O)C(C)O2` (centres unmarked) [Compound 21, 2-(4-cyclopropyl-6-methoxypyrimidin-5-yl)-6-methyl-8-(4-(1-methyl-4-(trifluoromethyl)-1H-imidazol-2-yl)benzyl)-6H-pyrimido[5,4-b][1,4]oxazin-7(8H)-one], the IC50 in assay [1] was found to be 16.7 nM. In assay [2], the GI50 was found to be 97.5 nM.

With `COc1ncnc(C2CC2)c1-c1ncc2c(n1)N(Cc1ccc(-c3nc(C(F)(F)F)cn3C)cc1)C(C)CO2` (centres unmarked) [Compound 23, 2-(4-cyclopropyl-6-methoxypyrimidin-5-yl)-7-methyl-8-(4-(1-methyl-4-(trifluoromethyl)-1H-imidazol-2-yl)benzyl)-7,8-dihydro-6H-pyrimido[5,4-b][1,4]oxazine], the IC50 in assay [1] stood at 21.9 nM. The GI50 in assay [2] amounted to 32.5 nM.

For the compound `COc1ncnc(C2CC2)c1-c1ncc2c(n1)N(Cc1ccc(-c3nc(C(F)(F)F)cn3C)cc1)CC(=O)N2CC(F)(F)F` [Compound 25, 2-(4-cyclopropyl-6-methoxypyrimidin-5-yl)-5-(2,2,2-trifluoroethyl)-8-(4-(1-methyl-4-(trifluoromethyl)-1H-imidazol-2-yl)benzyl)-7,8-dihydropteridin-6(5H)-one], the IC50 in assay [1] came to 27.2 nM. In assay [2], this compound had a GI50 of 84.8 nM.

As to `COc1ncnc(C2CC2)c1-c1ncc2c(n1)N(Cc1ccc(-c3nc(C(F)(F)F)cn3C)cc1)C(=O)N(C)C2` [Compound 29, 7-(4-cyclopropyl-6-methoxypyrimidin-5-yl)-3-methyl-1-(4-(1-methyl-4-(trifluoromethyl)-1H-imidazol-2-yl)benzyl)-3,4-dihydropyrimido[4,5-d]pyrimidin-2(1H)-one], in assay [1], the IC50 came to 20 nM. In assay [2], this compound showed a GI50 of 24.4 nM.

In the case of `CCN1C(=O)CN(Cc2ccc(-c3nc(C(F)(F)F)cn3CC)cc2)c2nc(-c3c(OC)ncnc3C3CC3)ncc21` [Compound 34, 2-(4-cyclopropyl-6-methoxypyrimidin-5-yl)-5-ethyl-8-(4-(1-ethyl-4-(trifluoromethyl)-1H-imidazol-2-yl)benzyl)-7,8-dihydropteridin-6(5H)-one], the IC50 in assay [1] came to 18.9 nM. Also, in assay [2], the GI50 turned out to be 39.6 nM.

Take `COc1ncnc(C2CC2)c1-c1ncc2c(=O)n(C)c(=O)n(Cc3ccc(-c4nc(C(F)(F)F)cn4C)cc3)c2n1` [Compound 35, 7-(4-cyclopropyl-6-methoxypyrimidin-5-yl)-3-methyl-1-(4-(1-methyl-4-(trifluoromethyl)-1H-imidazol-2-yl)benzyl)pyrimido[4,5-d]pyrimidine-2,4(1H,3H)-dione]: the IC50 in assay [1] was found to be 69.5 nM. The GI50 in assay [2] is 364 nM.

Regarding `COc1ncnc(C2CC2)c1-c1ncc2c(n1)N(Cc1ccc(-c3nc(C(F)(F)F)cn3C)cc1)CN(C)C2=O` [Compound 36, 7-(4-cyclopropyl-6-methoxypyrimidin-5-yl)-3-methyl-1-(4-(1-methyl-4-(trifluoromethyl)-1H-imidazol-2-yl)benzyl)-2,3-dihydropyrimido[4,5-d]pyrimidin-4(1H)-one], in assay [1], the IC50 was found to be 82.7 nM. This compound showed a GI50 in assay [2] of 546 nM.

For `COc1ncnc(C2CC2)c1-c1ncc2c(n1)N(Cc1ccc(-c3nc(C(F)(F)F)cn3C)cc1)C1CCCN1C2=O` (centres unmarked) [Compound 42, 2-(4-cyclopropyl-6-methoxypyrimidin-5-yl)-10-(4-(1-methyl-4-(trifluoromethyl)-1H-imidazol-2-yl)benzyl)-8,9,9a,10-tetrahydropyrimido[4,5-d]pyrrolo[1,2-a]pyrimidin-5(7H)-one], the IC50 in assay [1] amounted to 86.6 nM. Moreover, growth in assay [2] was halved (GI50) at 474 nM.

As to `COc1ncnc(C2CC2)c1-c1ncc2c(n1)N(Cc1ccc(-n3nc(C(F)(F)F)cc3C)c(F)c1)CC(=O)N2C` [Compound 44, 2-(4-cyclopropyl-6-methoxypyrimidin-5-yl)-5-methyl-8-(3-fluoro-4-(5-methyl-3-(trifluoromethyl)-1H-pyrazol-1-yl)benzyl)-7,8-dihydropteridin-6(5H)-one], in assay [1], the IC50 was 13.9 nM. The GI50 in assay [2] amounted to 27.5 nM.

`Cn1cc(C(F)(F)F)nc1-c1ccc(CN2C(=O)OC(C)(C)c3cnc(-c4c(OC(F)F)ncnc4C4CC4)nc32)cc1F` [Compound 57, 7-(4-cyclopropyl-6-(difluoromethoxy)pyrimidin-5-yl)-1-(3-fluoro-4-(1-methyl-4-(trifluoromethyl)-1H-imidazol-2-yl)benzyl)-4,4-dimethyl-1,4-dihydro-2H-pyrimido[4,5-d][1,3]oxazin-2-one]: in assay [1], the IC50 was determined as 8.1 nM. In assay [2], this compound yielded a GI50 of 19.8 nM.

In the case of `COc1ncnc(C2CC2)c1-c1ncc2c(n1)N(Cc1ccc(-c3nc(C(F)(F)F)cn3C)c(F)c1)C(=O)OC2(C)CO` (centres unmarked) [Compound 58, 7-(4-cyclopropyl-6-methoxypyrimidin-5-yl)-1-(3-fluoro-4-(1-methyl-4-(trifluoromethyl)-1H-imidazol-2-yl)benzyl)-4-(hydroxymethyl)-4-methyl-1,4-dihydro-2H-pyrimido[4,5-d][1,3]oxazin-2-one], the IC50 in assay [1] was 36.9 nM. In assay [2], growth was halved (GI50) at 81.8 nM.

For `COc1ncnc(C2CC2)c1-c1ncc2nc(C)c(=O)n(Cc3ccc(-c4nc(C(F)(F)F)cn4C)cc3)c2n1` [Compound 61, 2-(4-cyclopropyl-6-methoxypyrimidin-5-yl)-6-methyl-8-(4-(1-methyl-4-(trifluoromethyl)-1H-imidazol-2-yl)benzyl)pteridin-7(8H)-one], the IC50 in assay [1] was determined as 36.3 nM. Moreover, in assay [2], growth was halved (GI50) at 81.4 nM.

For the compound `COc1ncnc(C2CC2)c1-c1ncc2c(n1)N(Cc1cc(F)c(-c3nc(C(F)(F)F)cn3C)c(F)c1)CCO2` [Compound 62], the IC50 in assay [1] amounted to 9.8 nM. Besides, in assay [2], the GI50 is 12.3 nM.

As for `COc1ncnc(C2CC2)c1-c1ncc2c(n1)N(Cc1cc(F)c(-c3nc(C(F)(F)F)cn3C)cc1F)CCO2` [Compound 63], the IC50 in assay [1] is 11.3 nM. In assay [2], this compound returned a GI50 of 24.5 nM.

Take `COc1ncnc(C2CC2)c1-c1ncc2c(n1)N(Cc1ccc(-c3nc(C(F)(F)F)cn3C)c(F)c1)CC(=O)N2C` [Compound 65, 2-(4-cyclopropyl-6-methoxypyrimidin-5-yl)-5-methyl-8-(3-fluoro-4-(1-methyl-4-(trifluoromethyl)-1H-imidazol-2-yl)benzyl)-7,8-dihydropteridin-6(5H)-one]: the IC50 in assay [1] turned out to be 28.5 nM. For the same compound, the GI50 in assay [2] is 26.8 nM.

Turning to `COc1ncnc(C2CC2)c1-c1ncc2c(n1)N(Cc1ccc(-c3nc(C(F)(F)F)cn3C(C)C)c(F)c1)CC(=O)N2C` [Compound 67, 2-(4-cyclopropyl-6-methoxypyrimidin-5-yl)-5-methyl-8-(3-fluoro-4-(1-isopropyl-4-(trifluoromethyl)-1H-imidazol-2-yl)benzyl)-7,8-dihydropteridin-6(5H)-one], in assay [1], the IC50 was 16.8 nM. The compound further gave a GI50 in assay [2] of 17.3 nM.

Take `CCn1cc(C(F)(F)F)nc1-c1ccc(CN2CC(=O)N(C)c3cnc(-c4c(OC)ncnc4C4CC4)nc32)cc1F` [Compound 68, 2-(4-cyclopropyl-6-methoxypyrimidin-5-yl)-5-methyl-8-(3-fluoro-4-(1-ethyl-4-(trifluoromethyl)-1H-imidazol-2-yl)benzyl)-7,8-dihydropteridin-6(5H)-one]: the IC50 in assay [1] was 12.1 nM. The same compound displayed a GI50 in assay [2] of 27 nM.

In the case of `COc1ncnc(C2CC2)c1-c1ncc2c(n1)N(Cc1ccc(-c3nc(C(F)(F)F)cn3C)c(F)c1)CC(=O)N2C1CC1` [Compound 71, 2-(4-cyclopropyl-6-methoxypyrimidin-5-yl)-8-(3-fluoro-4-(1-methyl-4-(trifluoromethyl)-1H-imidazol-2-yl)benzyl)-5-cyclopropyl-7,8-dihydropteridin-6(5H)-one], in assay [1], the IC50 is 71.6 nM. The same compound gave a GI50 in assay [2] of 74.1 nM.

The values are drawn from patent US20240226107A1, “UBIQUITIN-SPECIFIC PROTEASE 1 (USP1) INHIBITOR” (SIMCERE ZAIMING PHARMACEUTICAL CO., LTD., priority 2021, published 2024).
